What all share (assay type): biochemical
Assay [1] has as its target T1, PI3Kδ (Homo sapiens, UniProt O00329).
T1 construct: purchased Millipore Ltd (Billerica, Mass.)
Kind of assay: In vitro determination of the PI3K enzyme inhibitory activity in the cell free assay (ADP-Glo Kinase Assay), PI3Kδ. To be noted: ATP 80 μM, read-out: PI3K delta inhibition. Put shortly: (§1)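 IC50 values came from four-parameter logistic fitting of ADP-Glo luminescence after 60 min kinase reactions at room temperature. ATP (final) was set per isoform: α 50 μM, β 100 μM, γ 30 μM, δ 80 μM. Substrates were phosphatidylinositol and phosphatidylserine (50 μM in 2× Tris pH 7.5 buffer), with human recombinant enzymes.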

The target in assay [2] is T2, PI3Kγ (Homo sapiens, UniProt P48736).
T2 construct: purchased Millipore Ltd (Billerica, Mass.)
T2 sequence (P48736 whole entry): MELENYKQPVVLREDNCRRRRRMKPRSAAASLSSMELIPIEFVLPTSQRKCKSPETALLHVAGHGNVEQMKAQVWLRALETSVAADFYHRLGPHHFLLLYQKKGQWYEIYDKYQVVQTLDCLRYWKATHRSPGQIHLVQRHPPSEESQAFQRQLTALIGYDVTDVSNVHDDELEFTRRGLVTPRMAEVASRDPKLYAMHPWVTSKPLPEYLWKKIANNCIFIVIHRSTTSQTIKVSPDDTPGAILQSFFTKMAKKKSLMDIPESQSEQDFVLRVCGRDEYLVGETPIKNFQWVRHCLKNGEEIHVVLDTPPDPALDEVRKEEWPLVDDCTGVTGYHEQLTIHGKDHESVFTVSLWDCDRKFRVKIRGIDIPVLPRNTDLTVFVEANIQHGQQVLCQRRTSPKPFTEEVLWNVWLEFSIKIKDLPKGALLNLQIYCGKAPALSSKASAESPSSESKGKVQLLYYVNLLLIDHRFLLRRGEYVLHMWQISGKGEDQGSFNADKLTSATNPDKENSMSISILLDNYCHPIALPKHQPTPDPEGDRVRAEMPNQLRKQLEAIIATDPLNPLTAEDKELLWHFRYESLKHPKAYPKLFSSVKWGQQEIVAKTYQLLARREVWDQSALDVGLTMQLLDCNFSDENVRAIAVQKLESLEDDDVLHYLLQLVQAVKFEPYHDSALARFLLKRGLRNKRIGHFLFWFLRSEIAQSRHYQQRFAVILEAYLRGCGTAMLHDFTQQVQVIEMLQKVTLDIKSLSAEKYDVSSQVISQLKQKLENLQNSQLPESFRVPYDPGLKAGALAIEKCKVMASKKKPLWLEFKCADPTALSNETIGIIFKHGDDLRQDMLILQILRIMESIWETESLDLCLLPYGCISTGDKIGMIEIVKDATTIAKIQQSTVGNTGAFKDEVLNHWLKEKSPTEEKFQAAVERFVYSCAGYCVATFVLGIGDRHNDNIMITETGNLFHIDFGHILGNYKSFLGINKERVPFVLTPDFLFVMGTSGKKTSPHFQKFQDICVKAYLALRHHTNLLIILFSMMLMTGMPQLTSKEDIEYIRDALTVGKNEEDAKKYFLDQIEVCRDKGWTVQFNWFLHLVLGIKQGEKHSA
Kind of assay: In vitro determination of the PI3K enzyme inhibitory activity in the cell free assay (ADP-Glo Kinase Assay), PI3Kγ. To be noted: ATP 30 μM, read-out: PI3K gamma inhibition. Put shortly: as §1

The target in assay [3] is T3, PI3Kα (Homo sapiens, UniProt P42336).
T3 construct: purchased Millipore Ltd (Billerica, Mass.)
T3 sequence (P42336 whole entry): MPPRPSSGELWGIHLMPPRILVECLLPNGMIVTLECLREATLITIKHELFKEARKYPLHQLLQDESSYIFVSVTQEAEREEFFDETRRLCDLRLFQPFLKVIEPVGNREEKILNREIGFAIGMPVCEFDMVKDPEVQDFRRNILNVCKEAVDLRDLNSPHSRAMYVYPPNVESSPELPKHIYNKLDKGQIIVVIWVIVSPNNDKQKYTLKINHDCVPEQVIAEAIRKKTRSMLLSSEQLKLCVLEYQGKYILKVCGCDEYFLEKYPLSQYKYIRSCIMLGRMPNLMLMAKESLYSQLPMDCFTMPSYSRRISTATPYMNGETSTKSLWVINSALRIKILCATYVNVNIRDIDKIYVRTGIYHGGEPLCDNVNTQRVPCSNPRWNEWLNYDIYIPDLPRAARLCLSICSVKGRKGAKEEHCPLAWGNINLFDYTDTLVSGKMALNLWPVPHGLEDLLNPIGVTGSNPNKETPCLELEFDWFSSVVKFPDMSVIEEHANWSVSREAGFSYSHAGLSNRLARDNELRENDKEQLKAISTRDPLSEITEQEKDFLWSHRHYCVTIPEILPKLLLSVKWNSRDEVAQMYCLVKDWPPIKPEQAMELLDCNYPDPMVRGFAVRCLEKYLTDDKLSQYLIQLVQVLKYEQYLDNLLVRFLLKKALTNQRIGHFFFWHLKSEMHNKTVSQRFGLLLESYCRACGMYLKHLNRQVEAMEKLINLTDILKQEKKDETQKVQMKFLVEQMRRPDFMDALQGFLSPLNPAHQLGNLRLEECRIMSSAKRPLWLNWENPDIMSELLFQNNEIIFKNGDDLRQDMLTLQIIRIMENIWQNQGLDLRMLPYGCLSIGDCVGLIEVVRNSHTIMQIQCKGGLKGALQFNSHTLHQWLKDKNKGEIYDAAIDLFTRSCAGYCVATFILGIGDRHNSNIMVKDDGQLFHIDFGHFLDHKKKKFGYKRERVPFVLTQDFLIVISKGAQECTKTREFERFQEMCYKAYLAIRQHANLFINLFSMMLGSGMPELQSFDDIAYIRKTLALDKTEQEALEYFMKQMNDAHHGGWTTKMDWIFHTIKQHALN
T3 sequence (P27986 whole entry partner): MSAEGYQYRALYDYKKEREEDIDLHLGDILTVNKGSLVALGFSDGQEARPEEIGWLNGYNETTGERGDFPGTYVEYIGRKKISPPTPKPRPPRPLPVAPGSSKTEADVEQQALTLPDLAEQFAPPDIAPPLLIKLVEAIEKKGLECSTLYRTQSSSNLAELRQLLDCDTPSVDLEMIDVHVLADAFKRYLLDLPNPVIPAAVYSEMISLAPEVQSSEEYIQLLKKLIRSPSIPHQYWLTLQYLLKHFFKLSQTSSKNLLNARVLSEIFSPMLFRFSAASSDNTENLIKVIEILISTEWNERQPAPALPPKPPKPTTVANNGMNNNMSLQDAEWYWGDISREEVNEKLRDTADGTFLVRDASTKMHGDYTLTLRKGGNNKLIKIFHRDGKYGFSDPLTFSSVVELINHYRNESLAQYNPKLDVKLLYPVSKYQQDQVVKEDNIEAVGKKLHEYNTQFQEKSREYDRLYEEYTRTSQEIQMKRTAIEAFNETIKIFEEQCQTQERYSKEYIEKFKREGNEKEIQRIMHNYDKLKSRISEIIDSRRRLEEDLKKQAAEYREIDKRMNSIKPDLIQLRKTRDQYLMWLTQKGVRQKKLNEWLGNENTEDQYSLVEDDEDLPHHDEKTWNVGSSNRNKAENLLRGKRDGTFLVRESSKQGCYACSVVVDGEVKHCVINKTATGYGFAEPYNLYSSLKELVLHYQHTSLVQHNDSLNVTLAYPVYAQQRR
Kind of assay: In vitro determination of the PI3K enzyme inhibitory activity in the cell free assay (ADP-Glo Kinase Assay), PI3Kα. To be noted: ATP 50 μM, read-out: PI3K alpha inhibition. The gist of the method:
as §1

In assay [4] the target is T4, PI3Kβ (Homo sapiens, UniProt P42338).
T4 construct: purchased Millipore Ltd (Billerica, Mass.)
T4 sequence (P42338 whole entry): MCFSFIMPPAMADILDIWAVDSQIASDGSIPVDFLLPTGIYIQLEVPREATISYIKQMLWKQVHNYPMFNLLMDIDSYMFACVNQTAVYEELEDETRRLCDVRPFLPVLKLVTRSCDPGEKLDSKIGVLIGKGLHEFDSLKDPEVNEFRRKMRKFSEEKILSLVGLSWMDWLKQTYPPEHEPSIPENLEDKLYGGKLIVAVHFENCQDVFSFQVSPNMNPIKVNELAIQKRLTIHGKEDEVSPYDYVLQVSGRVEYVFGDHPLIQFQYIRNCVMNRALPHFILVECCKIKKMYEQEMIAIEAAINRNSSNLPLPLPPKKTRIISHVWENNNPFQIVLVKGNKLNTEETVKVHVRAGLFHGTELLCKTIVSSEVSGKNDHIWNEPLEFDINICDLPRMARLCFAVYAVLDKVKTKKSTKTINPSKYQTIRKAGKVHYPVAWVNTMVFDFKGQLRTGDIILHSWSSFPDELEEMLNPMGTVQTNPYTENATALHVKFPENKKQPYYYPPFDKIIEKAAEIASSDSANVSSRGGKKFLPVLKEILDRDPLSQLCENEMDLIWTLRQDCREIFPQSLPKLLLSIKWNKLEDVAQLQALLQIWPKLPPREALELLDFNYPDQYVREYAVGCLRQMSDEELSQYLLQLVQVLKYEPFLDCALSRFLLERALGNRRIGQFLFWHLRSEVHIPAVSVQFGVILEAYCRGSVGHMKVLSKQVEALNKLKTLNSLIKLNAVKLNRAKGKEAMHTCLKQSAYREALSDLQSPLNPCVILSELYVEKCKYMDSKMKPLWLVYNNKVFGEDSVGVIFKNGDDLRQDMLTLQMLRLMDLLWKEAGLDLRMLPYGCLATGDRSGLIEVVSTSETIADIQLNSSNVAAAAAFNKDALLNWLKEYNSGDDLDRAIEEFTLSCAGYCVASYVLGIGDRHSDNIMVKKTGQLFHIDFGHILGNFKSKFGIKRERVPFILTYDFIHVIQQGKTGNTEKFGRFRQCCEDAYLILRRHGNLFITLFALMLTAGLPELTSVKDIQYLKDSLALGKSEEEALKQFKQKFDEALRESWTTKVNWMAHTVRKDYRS
T4 sequence (P27986 whole entry partner): as the sequence (P27986 whole entry partner) above
Kind of assay: In vitro determination of the PI3K enzyme inhibitory activity in the cell free assay (ADP-Glo Kinase Assay), PI3Kβ. To be noted: ATP 100 μM, read-out: PI3K beta inhibition. Put shortly: as §1

Our source for the IC50 values is patent publication US9527869B2, “Indolizine derivatives as phoshoinositide 3-kinases inhibitors” (CHIESI FARMACEUTICI S.P.A., priority 2014, dated 2016).

Molecules are shown by their SMILES. Some results are limits rather than exact numbers.

T1 sequence (O00329 whole entry): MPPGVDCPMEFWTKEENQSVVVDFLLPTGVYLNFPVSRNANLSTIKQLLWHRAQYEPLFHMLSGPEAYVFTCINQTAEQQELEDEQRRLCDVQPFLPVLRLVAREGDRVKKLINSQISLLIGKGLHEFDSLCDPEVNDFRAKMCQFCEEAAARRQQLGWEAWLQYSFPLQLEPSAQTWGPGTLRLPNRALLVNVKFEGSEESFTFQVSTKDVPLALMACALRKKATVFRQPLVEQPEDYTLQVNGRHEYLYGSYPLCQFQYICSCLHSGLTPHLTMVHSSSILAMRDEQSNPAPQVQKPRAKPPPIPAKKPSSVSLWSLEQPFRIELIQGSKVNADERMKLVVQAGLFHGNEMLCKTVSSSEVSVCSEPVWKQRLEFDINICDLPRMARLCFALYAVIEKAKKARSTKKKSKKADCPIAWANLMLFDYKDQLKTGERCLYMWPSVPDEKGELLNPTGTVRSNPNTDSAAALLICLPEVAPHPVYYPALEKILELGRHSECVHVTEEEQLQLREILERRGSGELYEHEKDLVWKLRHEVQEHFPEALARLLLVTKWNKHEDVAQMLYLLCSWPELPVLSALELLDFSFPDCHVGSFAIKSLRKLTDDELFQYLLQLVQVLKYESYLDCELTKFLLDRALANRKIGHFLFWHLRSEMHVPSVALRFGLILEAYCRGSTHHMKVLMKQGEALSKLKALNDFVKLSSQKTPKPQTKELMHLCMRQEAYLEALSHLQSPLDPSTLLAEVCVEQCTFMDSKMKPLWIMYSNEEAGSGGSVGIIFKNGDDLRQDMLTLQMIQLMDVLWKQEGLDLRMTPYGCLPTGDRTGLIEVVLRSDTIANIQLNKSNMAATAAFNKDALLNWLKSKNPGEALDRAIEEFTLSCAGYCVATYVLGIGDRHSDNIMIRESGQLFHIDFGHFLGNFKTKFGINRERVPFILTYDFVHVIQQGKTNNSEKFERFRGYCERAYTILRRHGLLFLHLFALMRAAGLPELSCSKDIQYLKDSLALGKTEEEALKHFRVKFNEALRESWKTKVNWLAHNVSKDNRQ
T1 sequence (P27986 whole entry partner): as the sequence (P27986 whole entry partner) above

With `CC(c1c(C#N)c2ccccn2c1-c1cccc(CN(C)C)c1)n1nc(-c2cc(O)cc(F)c2)c2c(N)ncnc21` (stereo not drawn) [Example 127, 2-{1-[4-amino-3-(3-fluoro-5-hydroxyphenyl)-1H-pyrazolo[3,4-d]pyrimidin-1-yl]-ethyl}-3-{3-[(dimethylamino)-methyl]phenyl}indolizine-1-carbonitrile], the IC50 in assay [1] is below 10 nM; in assay [2], above 1000 nM; in assay [3] it was above 1000 nM; in assay [4] it was 10 to 1000 nM.
As to `CC(c1cc2cccnn2c1-c1cccc(CN(C)C)c1)n1nc(-c2cc(O)cc(F)c2)c2c(N)ncnc21` (stereo not drawn) [Example 128, 3-{4-amino-1-[1-(7-{3-[(dimethylamino)-methyl]phenyl}pyrrolo[1,2-b]pyridazin-6-yl)-ethyl]-1H-pyrazolo[3,4-d]pyrimidin-3-yl}-5-fluorophenol], the IC50 in assay [1] was 10 to 1000 nM; in assay [2], above 1000 nM; in assay [3], above 1000 nM; in assay [4], 10 to 1000 nM.
On to `CC(c1cc2ccccn2c1-c1cscn1)n1nc(-c2cc(O)cc(F)c2)c2c(N)ncnc21` (stereo not drawn) [Example 129, 3-(4-amino-1-{1-[3-(1,3-thiazol-4-yl)indolizin-2-yl]-ethyl}-1H-pyrazolo[3,4-d]pyrimidin-3-yl)-5-fluorophenol], for which the IC50 in assay [1], in assay [2], in assay [3] and in assay [4] was 10 to 1000 nM throughout.
Turning to `CC(c1cc2ccccn2c1-c1csc(CN2CCOCC2)n1)n1nc(-c2cc(O)cc(F)c2)c2c(N)ncnc21` (stereo not drawn) [Example 130, 3-[4-amino-1-(1-{3-[2-(morpholin-4-ylmethyl)-1,3-thiazol-4-yl]indolizin-2-yl}ethyl)-1H-pyrazolo-[3,4-d]pyrimidin-3-yl]-5-fluorophenol], the IC50 in assay [1] is below 10 nM; in assay [2] it was 10 to 1000 nM; in assay [3], above 1000 nM; in assay [4] it was 10 to 1000 nM.
In the case of `CC(c1cc2ccccn2c1C#CCN(C)C)n1nc(-c2cc(O)cc(F)c2)c2c(N)ncnc21` (stereo not drawn) [Example 131, 3-[4-amino-1-(1-{3-[3-(dimethylamino)prop-1-yn-1-yl]indolizin-2-yl}ethyl)-1H-pyrazolo[3,4-d]-pyrimidin-3-yl]-5-fluorophenol], the IC50 in assay [1], in assay [2], in assay [3] and in assay [4] was 10 to 1000 nM in each case.
Regarding `CC(c1cc2ccccn2c1N1CCN(C)CC1=O)n1nc(-c2cc(O)cc(F)c2)c2c(N)ncnc21` (stereo not drawn) [Example 132, 1-(2-{1-[4-amino-3-(3-fluoro-5-hydroxyphenyl)-1H-pyrazolo[3,4-d]pyrimidin-1-yl]-ethyl}indolizin-3-yl)-4-methylpiperazin-2-one], the IC50 in assay [1] was below 10 nM; in assay [2], 10 to 1000 nM; in assay [3], 10 to 1000 nM; in assay [4], 10 to 1000 nM.
For `CC(c1cc2ccccn2c1-c1ccn(CCN(C)C)c(=O)c1)n1nc(-c2cc(O)cc(F)c2)c2c(N)ncnc21` (stereo not drawn) [Example 133, 4-(2-{1-[4-amino-3-(3-fluoro-5-hydroxyphenyl)-1H-pyrazolo[3,4-d]pyrimidin-1-yl]-ethyl}indolizin-3-yl)-1-[2-(dimethylamino)-ethyl]-1,2-dihydropyridin-2-one], the IC50 in assay [1] was below 10 nM; in assay [2], 10 to 1000 nM; in assay [3] it was above 1000 nM; in assay [4], 10 to 1000 nM.
For `CC(c1cc2ccccn2c1-c1ccc(=O)n(CCN2CCCC2)n1)n1nc(-c2cc(O)cc(F)c2)c2c(N)ncnc21` (stereo not drawn) [Example 134, 6-(2-{1-[4-amino-3-(3-fluoro-5-hydroxyphenyl)-1H-pyrazolo[3,4-d]pyrimidin-1-yl]-ethyl}indolizin-3-yl)-2-[2-(pyrrolidin-1-yl)-ethyl]-2,3-dihydropyridazin-3-one], the IC50 in assay [1] was below 10 nM; in assay [2] it was above 1000 nM; in assay [3], above 1000 nM; in assay [4], 10 to 1000 nM.
As for `CC(c1cc2ccccn2c1-c1ccc(=O)n(CCN2CCN(C)CC2)n1)n1nc(-c2cc(O)cc(F)c2)c2c(N)ncnc21` (stereo not drawn) [Example 135, 6-(2-{1-[4-amino-3-(3-fluoro-5-hydroxyphenyl)-1H-pyrazolo[3,4-d]pyrimidin-1-yl]-ethyl}indolizin-3-yl)-2-[2-(4-methylpiperazin-1-yl)ethyl]-2,3-dihydropyridazin-3-one], the IC50 is 10 to 1000 nM in assay [1], above 1000 nM in assay [2], above 1000 nM in assay [3] and 10 to 1000 nM in assay [4].
With `CC(c1cc2ccccn2c1-c1ccc(=O)n(CCN2CCOCC2)n1)n1nc(-c2cc(O)cc(F)c2)c2c(N)ncnc21` (stereo not drawn) [Example 136, 6-(2-{1-[4-amino-3-(3-fluoro-5-hydroxyphenyl)-1H-pyrazolo[3,4-d]pyrimidin-1-yl]-ethyl}indolizin-3-yl)-2-[2-(morpholin-4-yl)ethyl]-2,3-dihydropyridazin-3-one], the IC50 was 10 to 1000 nM in assay [1], above 1000 nM in assay [2], 10 to 1000 nM in assay [3] and 10 to 1000 nM in assay [4].
For `CC(c1cc2ccccn2c1-c1ccc(OCCN2CCN(C)CC2)nn1)n1nc(-c2cc(O)cc(F)c2)c2c(N)ncnc21` (stereo not drawn) [Example 137, 3-{4-amino-1-[1-(3-{6-[2-(4-methylpiperazin-1-yl)ethoxy]pyridazin-3-yl}indolizin-2-yl)-ethyl]-1H-pyrazolo[3,4-d]pyrimidin-3-yl}-5-fluorophenol], the IC50 in assay [1] was below 10 nM; in assay [2], above 1000 nM; in assay [3], above 1000 nM; in assay [4], 10 to 1000 nM.
On to `CC(c1cc2ccccn2c1-c1ccc(OCCN(C)C)nn1)n1nc(-c2cc(O)cc(F)c2)c2c(N)ncnc21` (stereo not drawn) [Example 138, 3-{4-amino-1-[1-(3-{6-[2-(dimethylamino)-ethoxy]pyridazin-3-yl}indolizin-2-yl)-ethyl]-1H-pyrazolo[3,4-d]pyrimidin-3-yl}-5-fluorophenol], for which the IC50 in assay [1] was below 10 nM; in assay [2], 10 to 1000 nM; in assay [3], 10 to 1000 nM; in assay [4], 10 to 1000 nM.
`CC(c1cc2ccccn2c1-c1ccc(OC2CCN(C)CC2)nn1)n1nc(-c2cc(O)cc(F)c2)c2c(N)ncnc21` (stereo not drawn) [Example 139, 3-{4-amino-1-[1-(3-{6-[(1-methylpiperidin-4-yl)oxy]pyridazin-3-yl}indolizin-2-yl)ethyl]-1H-pyrazolo-[3,4-d]pyrimidin-3-yl}-5-fluorophenol]: the IC50 was 10 to 1000 nM in assay [1], above 1000 nM in assay [2], above 1000 nM in assay [3] and 10 to 1000 nM in assay [4].
As for `CC(c1cc2ccccn2c1-c1ccc(OCCC2CCN(C)CC2)nn1)n1nc(-c2cc(O)cc(F)c2)c2c(N)ncnc21` (stereo not drawn) [Example 140, 3-{4-amino-1-[1-(3-{6-[2-(1-methylpiperidin-4-yl)ethoxy]pyridazin-3-yl}indolizin-2-yl)-ethyl]-1H-pyrazolo[3,4-d]pyrimidin-3-yl}-5-fluorophenol], the IC50 in assay [1] was 10 to 1000 nM; in assay [2], above 1000 nM; in assay [3], above 1000 nM; in assay [4] it was 10 to 1000 nM.
As to `CC(c1cc2ccccn2c1CN1CCOCC1)n1nc(-c2cc(O)cc(F)c2)c2c(N)ncnc21` (stereo not drawn) [Example 141, 3-(4-amino-1-{1-[3-(morpholin-4-ylmethyl)indolizin-2-yl]ethyl}-1H-pyrazolo[3,4-d]-pyrimidin-3-yl)-5-fluorophenol], the IC50 was below 10 nM in assay [1], 10 to 1000 nM in assay [2], 10 to 1000 nM in assay [3] and 10 to 1000 nM in assay [4].
